Results on 16 compounds are retold here after US20260092061A1, “COMPOUNDS FOR TARGETED PROTEIN DEGRADATION” (Amphista Therapeutics Limited, priority 2022, published 2026).

The target of assay [1] is T1, BRD9 (Homo sapiens, UniProt Q9H8M2).
T1 sequence (Q9H8M2 1-597): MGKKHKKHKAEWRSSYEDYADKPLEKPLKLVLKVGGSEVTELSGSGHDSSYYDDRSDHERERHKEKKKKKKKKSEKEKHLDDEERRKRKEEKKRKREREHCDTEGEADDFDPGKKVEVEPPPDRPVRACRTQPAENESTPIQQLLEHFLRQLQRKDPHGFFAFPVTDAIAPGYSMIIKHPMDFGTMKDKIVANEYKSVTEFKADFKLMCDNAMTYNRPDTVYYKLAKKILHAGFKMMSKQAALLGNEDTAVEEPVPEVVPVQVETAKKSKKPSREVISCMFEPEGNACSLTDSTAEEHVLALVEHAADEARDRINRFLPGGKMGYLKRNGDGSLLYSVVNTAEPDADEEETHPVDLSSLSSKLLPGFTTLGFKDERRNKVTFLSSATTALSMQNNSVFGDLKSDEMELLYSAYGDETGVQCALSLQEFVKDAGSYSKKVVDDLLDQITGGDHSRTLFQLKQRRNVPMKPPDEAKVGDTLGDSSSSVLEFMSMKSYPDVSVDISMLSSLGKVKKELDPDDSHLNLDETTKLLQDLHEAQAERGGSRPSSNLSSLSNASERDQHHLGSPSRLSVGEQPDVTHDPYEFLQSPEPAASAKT
The assay can be described thus: BRD9 degradation, HiBiT-BRD9 KI HEK293 (LgBiT) cells, NanoGlo Lytic Endpoint assay (Assay Protocol 1). The settings on record: Table 2, BRD9 degradation, Assay Protocol 1; for Dmax at 1 µM: HEK293, 1 μM compound at 6 h of treatment, read-out: Assay 1 Dmax; for DC50: 6 h of treatment, read-out: Assay 1 DC50. In kind it is cell-based. As for the experimental part:
HiBiT-BRD9 KI HEK293 (LgBiT) Cells (Promega CS3023412) were seeded at 8000 cells per well (38 μL) in sterile white bottom 384 well plates (Invitrogen 164610 or Greiner 781080) and incubated overnight at 37° C. with 5% CO2. The next day, compounds were prepared at 1000× final concentration in DMSO and diluted 1:100 in media (DMEM PAN Biotech P04-03550+10% FBS ATCC 302025). 4 μL compound was added to each well of the cell plate and incubated for 6 h at 37° C. with 5% CO2 BRD9 expression was quantified using the NanoGlo Lytic Endpoint assay (Promega N3050). The lytic buffer was equilibrated to room temperature for 10-15 min before lytic reagent was prepared by adding substrate (1:50) and LgBit protein (1:100) in lytic buffer. 40 μL lytic reagent mix was added to each well of the cel plate and plates were centrifuged briefly at ˜50g. Plates were incubated with shaking (350 RPM) for 12-24 min before reading using the LUM plus module of a BMG Pherastar FSX. Data was analysed using Dotmatics software and % BRD9 remaining was calculated by normalisation to average data from high and low control wells (DMSO treated cels and no cells respectively).

Assay [2] has as its target T1, BRD9. Description: Degradation of BRD9 (IF), immunofluorescence in MV4-11 cells, 24 hours (Assay Protocol 2). It is filed as cell-based. Set-up: A suspension of MV4-11 cells (ATCC CRL-9591) was prepared; host or cells: MV4-11. The settings on record: BRD9 degradation; for DC50: Assay protocol 2, read-out: DC50; for Dmax: MV4-11, Assay protocol 2, read-out: Dmax. In outline: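 % BRD9 remaining, scaled between DMSO (high) and 100 nM CFT-8634 (low) control wells, derives from mean Alexa 647 contrast in central nuclei by high-content imaging. MV4-11 cells had 24 h compound exposure at 37° C. before PFA fixation, Triton permeabilisation and anti-BRD9 E4Q3F immunostaining.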

As for `COc1cc(-c2cn(C)c(=O)c(C)c2C)cc(OC)c1CN1CCN(Cc2cccc3c2CCN(C(=O)/C(C#N)=C\c2nc(C)cs2)C3C)CC1` (mixture of isomers) [Compound A21], in assay [1], the greatest degradation seen (Dmax) at 1 µM lay in the range of 70 to 75% and the DC50 is below 1.25 nM.
In the same order, the values of `COc1cc(-c2cn(C)c(=O)c(C)c2C)cc(OC)c1CN1CCN(Cc2cccc3c2CCN(C(=O)/C(C#N)=C/c2ccc(C(F)(F)F)cn2)C3C)CC1` (mixture of isomers) [Compound A54, (E/Z)-2-(5-((4-(2,6-dimethoxy-4-(1,4,5-trimethyl-6-oxo-1,6-dihydropyridin-3-yl)benzyl)piperazin-1-yl)methyl)-1-methyl-1,2,3,4-tetrahydroisoquinoline-2-carbonyl)-3-(5-(trifluoromethyl)pyridin-2-yl)acrylonitrile] are 40 to 70% and 1.25 to 10 nM.
In the same order, the values of `COc1cc(-c2cn(C)c(=O)c3cnccc23)cc(OC)c1CN(C)Cc1ccc2c(c1)C(C)N(C(=O)/C(C#N)=C/c1cccc(Br)n1)CC2` (mixture of isomers) [Compound A59] are 70 to 75% and 1.25 to 10 nM.
With `COc1cc(-c2cn(C)c(=O)c3cnccc23)cc(OC)c1CN1CCN(Cc2cccc3c2CCN(C(=O)/C(C#N)=C\C(C)(C)CF)C3C)CC1` (mixture of isomers) [Compound A18, (E/Z)-2-(5-((4-(2,6-dimethoxy-4-(2-methyl-1-oxo-1,2-dihydro-2,7-naphthyridin-4-yl)benzyl)piperazin-1-yl)methyl)-1-methyl-1,2,3,4-tetrahydroisoquinoline-2-carbonyl)-5-fluoro-4,4-dimethylpent-2-enenitrile], in assay [1], the Dmax at 1 µM was 40 to 70% and the DC50 was below 1.25 nM.
The like results for `COc1cc(-c2cn(C)c(=O)c3cnccc23)cc(OC)c1CN1CCN(Cc2cccc3c2CCN(C(=O)/C(C#N)=C\c2nc(C)c(C)s2)C3C)CC1` (mixture of isomers) [Compound A13, (E/Z)-2-(5-((4-(2,6-dimethoxy-4-(2-methyl-1-oxo-1,2-dihydro-2,7-naphthyridin-4-yl)benzyl)piperazin-1-yl)methyl)-1-methyl-1,2,3,4-tetrahydroisoquinoline-2-carbonyl)-3-(4,5-dimethylthiazol-2-yl)acrylonitrile] were, in that order, 40 to 70% and 1.25 to 10 nM.
In the same order, the values of `COc1cc(-c2cn(C)c(=O)c3cnccc23)cc(OC)c1CN1CCN(Cc2cccc3c2CCN(C(=O)/C(C#N)=C/c2nc4ccccc4s2)C3C)CC1` (mixture of isomers) [Compound A6] are above 75% and below 1.25 nM.
In the same order, the values of `COc1cc(-c2cn(C)c(=O)c(C)c2C)cc(OC)c1CN1CCN(Cc2cccc3c2CCN(C(=O)/C(C#N)=C/C2CC2)C3C)CC1` (mixture of isomers) [Compound A44] are 40 to 70% and 1.25 to 10 nM.
With `COc1cc(-c2cc(C)c(=O)n(C)c2)cc(OC)c1CN1CCN(Cc2cccc3c2CCN(C(=O)/C(C#N)=C/C(C)C)C3C)CC1` (mixture of isomers) [Compound A52, (E/Z)-2-(5-((4-(4-(1,5-dimethyl-6-oxo-1,6-dihydropyridin-3-yl)-2,6-dimethoxybenzyl)piperazin-1-yl)methyl)-1-methyl-1,2,3,4-tetrahydroisoquinoline-2-carbonyl)-4-methylpent-2-enenitrile], in assay [1], the Dmax at 1 µM is above 75% and the DC50 lay in the range of 1.25 to 10 nM.
In the case of `COc1cc(-c2cn(C)c(=O)c(C)c2C)cc(OC)c1CN1CCN(C(=O)CCc2ccc3c(c2)C(C)N(C(=O)/C(C#N)=C/c2nccs2)CC3)CC1` (mixture of isomers) [Compound A55, (E/Z)-2-(7(3-(4-(2,6-dimethoxy-4-(1,4,5-trimethyl-6-oxo-1,6-dihydropyridin-3-yl)benzyl)piperazin-1-yl)-3-oxopropyl)-1-methyl-1,2,3,4-tetrahydroisoquinoline-2-carbonyl)-3-(thiazol-2-yl)acrylonitrile], in assay [1], the Dmax at 1 µM is 40 to 70% and the DC50 fell in the range of 10 to 25 nM.
The like results for `COc1cc(-c2cn(C)c(=O)c(C)c2C)cc(OC)c1CN1CCN(Cc2cccc3c2CCN(C(=O)/C(C#N)=C/C2CCC2)C3C)CC1` (mixture of isomers) [Compound A45] were, in that order, 70 to 75% and 1.25 to 10 nM.
Turning to `COc1cc(-c2cn(C)c(=O)c3cnccc23)cc(OC)c1CN1CCN(Cc2cccc3c2CCN(C(=O)/C(C#N)=C\c2nc(C)cs2)C3C)CC1` (mixture of isomers) [Compound A9, (E/Z)-2-(5-((4-(2,6-dimethoxy-4-(2-methyl-1-oxo-1,2-dihydro-2,7-naphthyridin-4-yl)benzyl)piperazin-1-yl)methyl)-1-methyl-1,2,3,4-tetrahydroisoquinoline-2-carbonyl)-3-(4-methylthiazol-2-yl)acrylonitrile], in assay [1], the Dmax at 1 µM fell in the range of 40 to 70% and the DC50 is below 1.25 nM.
In the same order, the values of `COc1cc(-c2cn(C)c(=O)c3cnccc23)cc(OC)c1CN1CCN(Cc2cccc3c2CCN(C(=O)/C(C#N)=C/c2c(F)cccc2F)C3C)CC1` (mixture of isomers) [Compound A35, (E/Z)-3-(2,6-difluorophenyl)-2-[5-[[4-[[2,6-dimethoxy-4-(2-methyl-1-oxo-2,7-naphthyridin-4-yl)phenyl]methyl]piperazin-1-yl]methyl]-1-methyl-3,4-dihydro-1H-isoquinoline-2-carbonyl]prop-2-enenitrile] are 40 to 70% and 1.25 to 10 nM.
On to `COc1cc(-c2cn(C)c(=O)c(C)c2C)cc(OC)c1CN1CCN(Cc2cccc3c2CCN(C(=O)/C(C#N)=C/C(C)(C)C)[C@@H]3C(C)C)CC12CC2` (single isomer, unassigned) [Compound C82, (E/Z)-2-(5-((4-(2,6-dimethoxy-4-(1,4,5-trimethyl-6-oxo-1,6-dihydropyridin-3-yl)benzyl)-4,7-diazaspiro[2.5]octan-7-yl)methyl)-1-isopropyl-1,2,3,4-tetrahydroisoquinoline-2-carbonyl)-4,4-dimethylpent-2-enenitrile], for which, in assay [2], the DC50 was in the range of 25 to 1000 nM and the Dmax was in the range of 40 to 70%.
The like results for `COc1cc(-c2cn(C)c(=O)c(C)c2C)cc(OC)c1CN1CCN(Cc2cccc3c2CCN(C(=O)/C(C#N)=C/C2(C)CCC2)C3C)C2(CC2)C1` (mixture of isomers) [Compound B149, (E/Z)-2-(5-((7-(2,6-dimethoxy-4-(1,4,5-trimethyl-6-oxo-1,6-dihydropyridin-3-yl)benzyl)-4,7-diazaspiro[2.5]octan-4-yl)methyl)-1-methyl-1,2,3,4-tetrahydroisoquinoline-2-carbonyl)-3-(1-methylcyclobutyl)acrylonitrile] were, in that order, below 1.25 nM and above 75%.
As for `COc1cc(-c2cn(C)c(=O)c(C)c2C)cc(OC)c1CN1CCN(Cc2ccc3c(c2)[C@@H](C)N(C(=O)/C(C#N)=C/C(C)(C)CF)CC3)CC12CC2` (single isomer, unassigned) [Compound C34], in assay [2], the DC50 was 25 to 1000 nM and the Dmax is 40 to 70%.
`COc1cc(-c2cn(C)c(=O)c(C)c2C)cc(OC)c1CN1CCN(Cc2cccc3c2CCN(C(=O)/C(C#N)=C/C(C)(C)C)[C@H]3C2CC2)C2(CC2)C1` (single isomer, unassigned) [Compound C99, (E/Z)-2-(1-cyclopropyl-5-((7-(2,6-dimethoxy-4-(1,4,5-trimethyl-6-oxo-1,6-dihydropyridin-3-yl)benzyl)-4,7-diazaspiro[2.5]octan-4-yl)methyl)-1,2,3,4-tetrahydroisoquinoline-2-carbonyl)-4,4-dimethylpent-2-enenitrile]: in assay [2], the DC50 was below 1.25 nM and the Dmax was above 75%.
